Laboratory results from PubChem BioAssay AID2060510 (Molecular Pharmacology Branch, DTP, NCI, 2025).
Each block holds one compound with its values, some of them ahead of it.

Test system: 439559-082-T-J2-PDC spheroids viability
Assay: Anticancer human tumor 439559-082-T-J2-PDC patient-derived colon adenocarcinoma cell line growth inhibition [GQUAD]
Details: for IC50: curve of first compound; for viability, T/C: stronger effect = lower value
Method in brief: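 Multi-cell-type spheroids of tumor cells with HUVEC and mesenchymal stem cells, treated with drug combinations. Concentrations descend in half-log steps from near clinical Cmax, or from 10 microM where Cmax is unknown; viability read-out.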

[1] = second compound 0.0316 µM, first compound 0.0316 µM
[2] = second compound 0.0316 µM, first compound 0.1 µM
[3] = second compound 0.0316 µM, first compound 0.316 µM
[4] = second compound 0.0316 µM, first compound 1 µM
[5] = second compound 0.0316 µM, first compound 3.16 µM
[6] = second compound 0.0316 µM, first compound 10 µM
[7] = second compound 0.1 µM, first compound 0.0316 µM
[8] = second compound 0.1 µM, first compound 0.1 µM
[9] = second compound 0.1 µM, first compound 0.316 µM
[10] = second compound 0.1 µM, first compound 1 µM
[11] = second compound 0.1 µM, first compound 3.16 µM
[12] = second compound 0.1 µM, first compound 10 µM
[13] = second compound 0.316 µM, first compound 0.0316 µM
[14] = second compound 0.316 µM, first compound 0.1 µM
[15] = second compound 0.316 µM, first compound 0.316 µM
[16] = second compound 0.316 µM, first compound 1 µM
[17] = second compound 0.316 µM, first compound 3.16 µM
[18] = second compound 0.316 µM, first compound 10 µM
[19] = second compound 1 µM, first compound 0.0316 µM
[20] = second compound 1 µM, first compound 0.1 µM
[21] = second compound 1 µM, first compound 0.316 µM
[22] = second compound 1 µM, first compound 1 µM
[23] = second compound 1 µM, first compound 3.16 µM
[24] = second compound 1 µM, first compound 10 µM
[25] = second compound 3.16 µM, first compound 0.0316 µM
[26] = second compound 3.16 µM, first compound 0.1 µM
[27] = second compound 3.16 µM, first compound 0.316 µM
[28] = second compound 3.16 µM, first compound 1 µM
[29] = second compound 3.16 µM, first compound 3.16 µM
[30] = second compound 3.16 µM, first compound 10 µM
[31] = second compound 10 µM, first compound 0.0316 µM
[32] = second compound 10 µM, first compound 0.1 µM
[33] = second compound 10 µM, first compound 0.316 µM
[34] = second compound 10 µM, first compound 1 µM
[35] = second compound 10 µM, first compound 3.16 µM
[36] = second compound 10 µM, first compound 10 µM
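Note: spheroids exposed to the agents for 7 days before readout.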
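Throughout, for viability, T/C: percent of luminescence signal in DMSO vehicle wells taken as 100% viability.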

Structure (SMILES): CC1COCCN1c1cc(-c2ccnn2C)c2ccnc(-c3ccn[nH]3)c2n1 (stereo not drawn) + Cc1[nH]c2ccc(F)cc2c1-c1nc2c3cccnc3c3ncccc3c2[nH]1
- IC50 (second compound 0.0316 µM): 427 nM
- IC50 (second compound 0.1 µM): 269 nM
- IC50 (second compound 0.316 µM): 295 nM
- IC50 (second compound 1 µM): 276 nM
- IC50 (second compound 3.16 µM): 227 nM
- IC50 (second compound 10 µM): 209 nM
- viability, T/C [1]: 106%
- viability, T/C [2]: 80.6%
- viability, T/C [3]: 53.5%
- viability, T/C [4]: 38.8%
- viability, T/C [5]: 35.8%
- viability, T/C [6]: 30.7%
- viability, T/C [7]: 103%
- viability, T/C [8]: 77.2%
- viability, T/C [9]: 45.7%
- viability, T/C [10]: 36.9%
- viability, T/C [11]: 40.8%
- viability, T/C [12]: 34.5%
- viability, T/C [13]: 101%
- viability, T/C [14]: 87.4%
- viability, T/C [15]: 47.8%
- viability, T/C [16]: 34%
- viability, T/C [17]: 41.6%
- viability, T/C [18]: 30.2%
- viability, T/C [19]: 91.6%
- viability, T/C [20]: 82%
- viability, T/C [21]: 46%
- viability, T/C [22]: 31.9%
- viability, T/C [23]: 39.6%
- viability, T/C [24]: 29.8%
- viability, T/C [25]: 88.2%
- viability, T/C [26]: 73.5%
- viability, T/C [27]: 40.6%
- viability, T/C [28]: 30.3%
- viability, T/C [29]: 34.1%
- viability, T/C [30]: 27.4%
- viability, T/C [31]: 76.1%
- viability, T/C [32]: 73.5%
- viability, T/C [33]: 36.8%
- viability, T/C [34]: 31.6%
- viability, T/C [35]: 32.8%
- viability, T/C [36]: 29.6%

Structure (SMILES): C=CC(=O)N1CCN(c2nc(=O)n(-c3c(C)ccnc3C(C)C)c3nc(-c4c(O)cccc4F)c(F)cc23)C(C)C1 (stereo not drawn) + CN(C)c1ccc(Nc2c3ccc(NC(=O)CCN4CCCC4)cc3nc3cc(NC(=O)CCN4CCCC4)ccc23)cc1
- IC50 (second compound 0.0316 µM): > 10000 nM
- IC50 (second compound 0.1 µM): > 10000 nM
- IC50 (second compound 0.316 µM): > 10000 nM
- IC50 (second compound 1 µM): > 10000 nM
- IC50 (second compound 3.16 µM): > 10000 nM
- IC50 (second compound 10 µM): > 10000 nM
- viability, T/C [1]: 103%
- viability, T/C [2]: 91.4%
- viability, T/C [3]: 93.6%
- viability, T/C [4]: 104%
- viability, T/C [5]: 111%
- viability, T/C [6]: 95.4%
- viability, T/C [7]: 105%
- viability, T/C [8]: 92.2%
- viability, T/C [9]: 104%
- viability, T/C [10]: 97.6%
- viability, T/C [11]: 111%
- viability, T/C [12]: 104%
- viability, T/C [13]: 104%
- viability, T/C [14]: 102%
- viability, T/C [15]: 91.6%
- viability, T/C [16]: 114%
- viability, T/C [17]: 106%
- viability, T/C [18]: 110%
- viability, T/C [19]: 112%
- viability, T/C [20]: 96.3%
- viability, T/C [21]: 105%
- viability, T/C [22]: 97.6%
- viability, T/C [23]: 120%
- viability, T/C [24]: 108%
- viability, T/C [25]: 94.8%
- viability, T/C [26]: 103%
- viability, T/C [27]: 108%
- viability, T/C [28]: 108%
- viability, T/C [29]: 114%
- viability, T/C [30]: 108%
- viability, T/C [31]: 103%
- viability, T/C [32]: 96%
- viability, T/C [33]: 96.8%
- viability, T/C [34]: 106%
- viability, T/C [35]: 109%
- viability, T/C [36]: 100%

- IC50 (second compound 0.0316 µM): > 10000 nM
- IC50 (second compound 0.1 µM): > 10000 nM
- IC50 (second compound 0.316 µM): > 10000 nM
- IC50 (second compound 1 µM): > 10000 nM
- IC50 (second compound 3.16 µM): > 10000 nM
- IC50 (second compound 10 µM): > 10000 nM
Structure (SMILES): O=c1[nH]cc(F)c(=O)[nH]1 + Cc1cnc(CNC(=O)c2c(=O)c3ccc(N4CCCN(C)CC4)nc3n3c2sc2ccccc23)cn1
- viability, T/C [1]: 100%
- viability, T/C [2]: 102%
- viability, T/C [3]: 87.2%
- viability, T/C [4]: 74.5%
- viability, T/C [5]: 67%
- viability, T/C [6]: 63.6%
- viability, T/C [7]: 91.9%
- viability, T/C [8]: 96.4%
- viability, T/C [9]: 81.2%
- viability, T/C [10]: 72.9%
- viability, T/C [11]: 68.7%
- viability, T/C [12]: 67.4%
- viability, T/C [13]: 88.2%
- viability, T/C [14]: 90%
- viability, T/C [15]: 73.7%
- viability, T/C [16]: 63.5%
- viability, T/C [17]: 66.7%
- viability, T/C [18]: 66%
- viability, T/C [19]: 88.9%
- viability, T/C [20]: 73.6%
- viability, T/C [21]: 62.7%
- viability, T/C [22]: 59.9%
- viability, T/C [23]: 66.4%
- viability, T/C [24]: 65.2%
- viability, T/C [25]: 62.5%
- viability, T/C [26]: 68.3%
- viability, T/C [27]: 63%
- viability, T/C [28]: 58.4%
- viability, T/C [29]: 59.9%
- viability, T/C [30]: 52.7%
- viability, T/C [31]: 68.7%
- viability, T/C [32]: 66.3%
- viability, T/C [33]: 67.8%
- viability, T/C [34]: 57.8%
- viability, T/C [35]: 57.7%
- viability, T/C [36]: 58.3%

Structure (SMILES): O=C(NO)c1cnc(N2CCN(S(=O)(=O)c3ccc4ccccc4c3)CC2)nc1 + Cc1[nH]c2ccc(F)cc2c1-c1nc2c3cccnc3c3ncccc3c2[nH]1
- IC50 (second compound 0.0316 µM): 2100 nM
- IC50 (second compound 0.1 µM): 1870 nM
- IC50 (second compound 0.316 µM): 3790 nM
- IC50 (second compound 1 µM): 2040 nM
- IC50 (second compound 3.16 µM): 1350 nM
- IC50 (second compound 10 µM): 1090 nM
- viability, T/C [1]: 90.8%
- viability, T/C [2]: 86%
- viability, T/C [3]: 75.8%
- viability, T/C [4]: 60.1%
- viability, T/C [5]: 44.6%
- viability, T/C [6]: 31.5%
- viability, T/C [7]: 84.4%
- viability, T/C [8]: 79.8%
- viability, T/C [9]: 75.9%
- viability, T/C [10]: 64.4%
- viability, T/C [11]: 37.9%
- viability, T/C [12]: 31.4%
- viability, T/C [13]: 85.4%
- viability, T/C [14]: 76.4%
- viability, T/C [15]: 76%
- viability, T/C [16]: 65%
- viability, T/C [17]: 55.9%
- viability, T/C [18]: 30.8%
- viability, T/C [19]: 86.2%
- viability, T/C [20]: 85.2%
- viability, T/C [21]: 77.1%
- viability, T/C [22]: 64.8%
- viability, T/C [23]: 41%
- viability, T/C [24]: 25.7%
- viability, T/C [25]: 70.3%
- viability, T/C [26]: 73.7%
- viability, T/C [27]: 62.1%
- viability, T/C [28]: 58.1%
- viability, T/C [29]: 31.6%
- viability, T/C [30]: 25.8%
- viability, T/C [31]: 68.2%
- viability, T/C [32]: 67.4%
- viability, T/C [33]: 58.4%
- viability, T/C [34]: 53.1%
- viability, T/C [35]: 24.2%
- viability, T/C [36]: 22.4%
